Experimental data as given in patent publication US4425347A, “Perfluorobicyclo compound emulsion preparation” (priority 1982, dated 1984).

Experiment: Distribution of Perfluoro-compound in Organs (gas chromatography)
Assay type: in vivo, Wister-strain male rats
Conditions: 4 g/kg, tail vein; for Residual Rate of perfluorobicyclo compound: 3 Months after administration
Description: Using Wister-strain male rats weighing 120-130 g, the emulsion prepared in Example 1 was administered into the tail vein [at 4 g/kg as perfluoro-4-methyloctahydroquinolidine], and for a period of 3 months after the administration, the content of said compound in the liver, spleen and fat tissues due to uptake were measured by means of gas chromatography.

## FC(F)(F)C1(F)N2C(F)(F)C(F)(F)C(F)(F)C(F)(F)C2(F)C(F)(F)C(F)(F)C1(F)F (centres unmarked) [perfluoro-4-methyloctahydroquinolidine]
3 months
  adverse influence on the liver or spleen organ: no evidence of adverse influence on the liver or spleen organ
rat
  uptake by the reticulo-endothelial organ and disappearance: taken up in greater amounts by the reticulo-endothelial organ shortly after the administration, but soon disappeared rapidly
Liver
  Residual Rate of perfluorobicyclo compound: 0.30%
Spleen
  Residual Rate of perfluorobicyclo compound: 0.09%
In vivo, iv, 4000 mg/kg, rat
  half-life: 176 h
